Assay results: patent US20130143886A1, “METHODS FOR PRESERVING AND/OR INCREASING RENAL FUNCTION USING XANTHINE OXIDOREDUCTASE INHIBITORS” (priority 2006, published 2013)
Entries after “also recorded” stand apart in the source; their conditions may differ.

Columns and labels:
remnant kidney (RK) rats [1] = test: Plasma uric acid in remnant kidney rats; format: in vivo, Male Wistar rats
Protocol: Male Wistar rats (295-340 g) were used to produce rats with remnant kidney (RK) as follows. […] Rats were then assigned to one of four treatment groups: Group 1, RK control rats (n=7); Group 2, RK+febuxostat (Fx) rats (n=8); Group 3, RK+oxonic acid (OA) rats (n=6); and Group 4, RK+OA+Fx (n=10). Oxonic acid (OA) (Sigma-Aldrich, St Louis Mo., USA), administered at 750 mg/kg body weight daily by oral gavage, was given starting the day after the ⅚ nephrectomy. Beginning immediately following the surgery, febuxostat was administered in drinking water at 30 mg/L (3-4 mg/kg/day), whereas the respective controls received only drinking water (with 3.5 mg/L of NaCl added to keep an equivalent salt concentration to the Fx-containing water). All groups were treated for four weeks. Body weight (beginning just before surgery) and food and water intakes were measured daily. Systolic blood pressure, measured in conscious rats by a tail cuff sphygmomanometer, and plasma uric acid (UA) levels were measured at just before surgery (namely, at baseline) and at the end of the four weeks. Proteinuria was measured at baseline and at the end of two and four weeks. A renal micropuncture procedure along with systemic blood pressure monitoring under pentobarbital anesthesia was performed at the end of four weeks followed by morphologic evaluation of the renal preglomerular microvasculature. Food and water intake were determined daily. Systolic blood pressure (SBP) was measured by a tail-cuff sphygmomanometer using an automated system (XBP-100; Kent Scientific Co, Torrington, Conn., USA) in conscious animals. […] Plasma uric acid was quantified using a commercial kit (Diagnostic Chemicals Ltd, Charlottetown, PEI, Canada). Proteinuria was determined by turbidimetry by the method of trichloroacetic acid as described in Henry R J et al., “Turbidimetric determination of proteins with sulfosalicylic and tricholoroacetic acids”, Proc Soc Exp Biol Med 92:748-751 (1956), the contents of which are herein incorporated by reference.

remnant kidney (RK) rats [2] = test: Renal arteriolar morphology; format: in vivo, Male Wistar rats
Protocol: Male Wistar rats (295-340 g) were used to produce rats with remnant kidney (RK) as follows. […] Rats were then assigned to one of four treatment groups: Group 1, RK control rats (n=7); Group 2, RK+febuxostat (Fx) rats (n=8); Group 3, RK+oxonic acid (OA) rats (n=6); and Group 4, RK+OA+Fx (n=10). Oxonic acid (OA) (Sigma-Aldrich, St Louis Mo., USA), administered at 750 mg/kg body weight daily by oral gavage, was given starting the day after the 5⁄6 nephrectomy. Beginning immediately following the surgery, febuxostat was administered in drinking water at 30 mg/L (3-4 mg/kg/day), whereas the respective controls received only drinking water (with 3.5 mg/L of NaCl added to keep an equivalent salt concentration to the Fx-containing water). After the micropuncture study, kidneys were washed by perfusion with phosphate-buffered saline and then fixed with 4% paraformaldehyde. Renal biopsies were embedded in paraffin. Sections of 4-μm thick fixed tissue were stained with periodic acid Schiff (PAS) reagent and Masson's trichrome staining. Arteriolar morphology was assessed by indirect peroxidase immunostaining for alpha-smooth muscle actin (DAKO Corp, Carpinteria, Calif., USA). Renal sections incubated with normal rabbit serum were used as negative controls for immunostaining against alpha smooth-muscle actin. For each arteriole, the outline of the vessel and its internal lumen (excluding the endothelium) were generated using computer analysis to calculate the total medial area (outline inline), in 10 arterioles per biopsy. The media/lumen ratio was calculated by the outline/inline relationship (See, Sanchez-Lozada L G et al., “Mild hyperuricemia induces glomerular hypertension in normal rats”, Am J Physiol Renal Physiol 283:[…]-[…] (2002); Sanchez-Lozada L G, et al., “Mild hyperuricemia induces vasoconstriction and maintains glomerular hypertension in normal and remnant kidney rats,” Kidney Int 67:237-247 (2005), the contents of each are herein incorporated by reference). Quantifications were performed blinded.

[3] = tested on: normal Sprague-Dawley rats; test: Water intake in normal rats (earlier data of the laboratory); format: in vivo; details: previous data of this laboratory
remnant kidney (RK) rats [4] = test: Systolic blood pressure by tail cuff in conscious remnant kidney rats; format: in vivo, Male Wistar rats; details: all four groups, after four weeks; corroborated by mean arterial pressure under anesthesia
Protocol: Male Wistar rats (295-340 g) were used to produce rats with remnant kidney (RK) as follows. […] Rats were then assigned to one of four treatment groups: Group 1, RK control rats (n=7); Group 2, RK+febuxostat (Fx) rats (n=8); Group 3, RK+oxonic acid (OA) rats (n=6); and Group 4, RK+OA+Fx (n=10). Oxonic acid (OA) (Sigma-Aldrich, St Louis Mo., USA), administered at 750 mg/kg body weight daily by oral gavage, was given starting the day after the ⅚ nephrectomy. […] Body weight (beginning just before surgery) and food and water intakes were measured daily. Systolic blood pressure, measured in conscious rats by a tail cuff sphygmomanometer, and plasma uric acid (UA) levels were measured at just before surgery (namely, at baseline) and at the end of the four weeks. Proteinuria was measured at baseline and at the end of two and four weeks. […] Food and water intake were determined daily. Systolic blood pressure (SBP) was measured by a tail-cuff sphygmomanometer using an automated system (XBP-100; Kent Scientific Co, Torrington, Conn., USA) in conscious animals. […] Plasma uric acid was quantified using a commercial kit (Diagnostic Chemicals Ltd, Charlottetown, PEI, Canada). […]

Cc1nc(-c2ccc(OCC(C)C)c(C#N)c2)sc1C(=O)O [febuxostat, 2-[3-cyano-4-(2-methylpropoxy)phenyl]-4-methylthiazole-5-carboxylic acid]
Plasma uric acid as % of the value measured in the RK control rats (remnant kidney (RK) rats [1]; RK rats receiving febuxostat, end of four weeks, difference not statistically significant): approximately 63% | Plasma uric acid in OA-treated rats (in words) (remnant kidney (RK) rats [1]; febuxostat added to OA-treated RK rats): prevented the'rise of uric acid levels | Thickening of preglomerular vessels / afferent arteriole (in words) (remnant kidney (RK) rats [2]; RK rats vs RK control group): prevented the thickening of preglomerular vessels | Additional thickening of the afferent arteriole (in words) (remnant kidney (RK) rats [2]; RK+OA rats treated with febuxostat): prevented | Media/lumen (M/L) ratio (in words) (remnant kidney (RK) rats [2]; febuxostat-treated rats vs respective untreated cohorts): no statistically significant differences; also recorded: tendency for the M/L ratio to be lower | Effect on water intake [3]: no effect on water intake | Systolic blood pressure (in words) (remnant kidney (RK) rats [4]): developed systemic hypertension to approximately the same degree
